According to patent publication US11053204B2, “Pyrimidinyloxy benzene derivatives as herbicides” (FMC Corporation, priority 2015, dated 2021):

Legend:
Type in all cases: in vivo
kochia (Kochia scoparia) = assay: Test C preemergence, plant response rating
[1] = system: geranium, cutleaf (cutleaf geranium, Geranium dissectum); assay: Test C postemergence, plant response rating; settings: for Geranium, Cutleaf plant response rating: scale 0 to 100 (0 no effect, 100 complete control)
In short: (§1)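 Preemergence: seeds sown in loam–sand blend or silt loam and sprayed with test chemicals in a non-phytotoxic surfactant-containing solvent. Postemergence: potted plants at 2–18 cm (1–4-leaf stage) sprayed with the same formulation. After 13–15 d in greenhouse, visual rating versus controls on 0 (no effect) to 100 (complete control) scale.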

[2] = system: windgrass (Apera spica-venti); assay: Test C postemergence, plant response rating
In short: as §1

[3] = system: field violet (Viola arvensis); assay: Test C postemergence, plant response rating; settings: for Field Violet plant response rating: scale 0 to 100 (0 no effect, 100 complete control)
In short: as §1

[4] = system: pigweed, palmer (palmer pigweed, Amaranthus palmeri); assay: Test C postemergence, plant response rating; settings: for Pigweed, Palmer plant response rating: scale 0 to 100 (0 no effect, 100 complete control)
In short: as §1

[5] = system: field poppy (Papaver rhoeas); assay: Test C postemergence, plant response rating; settings: for Field Poppy plant response rating: scale 0 to 100 (0 no effect, 100 complete control)
In short: as §1

[6] = system: wild poinsettia (Euphorbia heterophylla); assay: Test C postemergence, plant response rating; settings: for Poinsettia, Wild plant response rating: scale 0 to 100 (0 no effect, 100 complete control)
In short: as §1

[7] = system: wild mustard (Sinapis arvensis); assay: Test C postemergence, plant response rating; settings: for Mustard, Wild plant response rating: scale 0 to 100 (0 no effect, 100 complete control)
In short: as §1

[8] = system: buckwheat, wild (wild buckwheat, Polygonum convolvulus); assay: Test C postemergence, plant response rating; settings: for Buckwheat, Wild plant response rating: scale 0 to 100 (0 no effect, 100 complete control)
In short: as §1

[9] = system: johnsongrass (Sorghum halepense); assay: Test C postemergence, plant response rating; settings: for Johnsongrass plant response rating: scale 0 to 100 (0 no effect, 100 complete control)
In short: as §1

[10] = system: surinam grass (Brachiaria decumbens); assay: Test C postemergence, plant response rating
In short: as §1

[11] = system: Canada thistle (Cirsium arvense); assay: Test C postemergence, plant response rating; settings: for Canada Thistle plant response rating: scale 0 to 100 (0 no effect, 100 complete control)
In short: as §1

[12] = system: nightshade (eastern black nightshade, Solanum ptycanthum); assay: Test C postemergence, plant response rating; settings: for Nightshade plant response rating: scale 0 to 100 (0 no effect, 100 complete control)
In short: as §1

[13] = system: speedwell (bird's-eye speedwell, Veronica persica); assay: Test C postemergence, plant response rating; settings: for Speedwell plant response rating: scale 0 to 100 (0 no effect, 100 complete control)
In short: as §1

[14] = system: pigweed, palmer (palmer pigweed, Amaranthus palmeri); assay: Test C preemergence, plant response rating
[15] = system: johnsongrass (Sorghum halepense); assay: Test C preemergence, plant response rating
[16] = system: surinam grass (Brachiaria decumbens); assay: Test C preemergence, plant response rating
[17] = system: oat, wild (wild oat Avena fatua); assay: Test C preemergence, plant response rating
[18] = system: wild poinsettia (Euphorbia heterophylla); assay: Test C preemergence, plant response rating
[19] = system: galium (catchweed bedstraw, Galium aparine); assay: Test C preemergence, plant response rating
[20] = 125 g ai/ha, scale 0 to 100 (0 no effect, 100 complete control)

O=C(CCCC(F)(F)F)c1c(Cl)cccc1Oc1ncc(Cl)cn1 [Compound 143]
Plant response rating, Kochia (kochia (Kochia scoparia); 31 g ai/ha, scale 0 to 100): 80
Plant response rating, Kochia (kochia (Kochia scoparia); 62 g ai/ha, scale 0 to 100): 90
Plant response rating, Kochia (kochia (Kochia scoparia); 125 g ai/ha, scale of 0 to 100): 90
Plant response rating, Geranium, Cutleaf ([1]; 16 g ai/ha, scale of 0 to 100): 30
Plant response rating, Geranium, Cutleaf ([1]; 31 g ai/ha, scale 0 to 100): 50
Geranium, Cutleaf plant response rating ([1]; 62 g ai/ha): 60
Geranium, Cutleaf plant response rating ([1]; 125 g ai/ha): 75
Plant response rating, Windgrass ([2]; 16 g ai/ha, scale of 0 to 100): 30
Plant response rating, Windgrass ([2]; 31 g ai/ha, scale 0 to 100): 35
Windgrass plant response rating [2, 20]: 40
Plant response rating, Field Violet ([3]; 16 g ai/ha, scale of 0 to 100): 75
Plant response rating, Field Violet ([3]; 31 g ai/ha, scale 0 to 100): 80
Field Violet plant response rating ([3]; 62 g ai/ha): 98
Field Violet plant response rating ([3]; 125 g ai/ha): 100
Plant response rating, Pigweed, Palmer ([4]; 16 g ai/ha, scale of 0 to 100): 45
Plant response rating, Pigweed, Palmer ([4]; 31 g ai/ha, scale 0 to 100): 75
Pigweed, Palmer plant response rating ([4]; 62 g ai/ha): 80
Pigweed, Palmer plant response rating ([4]; 125 g ai/ha): 100
Plant response rating, Field Poppy ([5]; 16 g ai/ha, scale of 0 to 100): 80
Plant response rating, Field Poppy ([5]; 31 g ai/ha, scale 0 to 100): 90
Field Poppy plant response rating ([5]; 62 g ai/ha): 90
Field Poppy plant response rating ([5]; 125 g ai/ha): 100
Plant response rating, Poinsettia, Wild ([6]; 16 g ai/ha, scale of 0 to 100): 55
Plant response rating, Poinsettia, Wild ([6]; 31 g ai/ha, scale 0 to 100): 65
Poinsettia, Wild plant response rating ([6]; 62 g ai/ha): 70
Poinsettia, Wild plant response rating ([6]; 125 g ai/ha): 75
Plant response rating, Mustard, Wild ([7]; 16 g ai/ha, scale of 0 to 100): 100
Plant response rating, Mustard, Wild ([7]; 31 g ai/ha, scale 0 to 100): 100
Mustard, Wild plant response rating ([7]; 62 g ai/ha): 100
Mustard, Wild plant response rating ([7]; 125 g ai/ha): 100
Plant response rating, Buckwheat, Wild ([8]; 16 g ai/ha, scale of 0 to 100): 75
Plant response rating, Buckwheat, Wild ([8]; 31 g ai/ha, scale 0 to 100): 85
Buckwheat, Wild plant response rating ([8]; 62 g ai/ha): 100
Buckwheat, Wild plant response rating ([8]; 125 g ai/ha): 100
Plant response rating, Johnsongrass ([9]; 16 g ai/ha, scale of 0 to 100): 5
Plant response rating, Johnsongrass ([9]; 31 g ai/ha, scale 0 to 100): 5
Johnsongrass plant response rating ([9]; 62 g ai/ha): 10
Johnsongrass plant response rating ([9]; 125 g ai/ha): 20
Plant response rating, Surinam Grass ([10]; 16 g ai/ha, scale of 0 to 100): 5
Plant response rating, Surinam Grass ([10]; 31 g ai/ha, scale 0 to 100): 10
Surinam Grass plant response rating [10, 20]: 20
Plant response rating, Canada Thistle ([11]; 16 g ai/ha, scale of 0 to 100): 85
Plant response rating, Canada Thistle ([11]; 31 g ai/ha, scale 0 to 100): 85
Canada Thistle plant response rating ([11]; 62 g ai/ha): 90
Canada Thistle plant response rating ([11]; 125 g ai/ha): 100
Plant response rating, Nightshade ([12]; 16 g ai/ha, scale of 0 to 100): 65
Plant response rating, Nightshade ([12]; 31 g ai/ha, scale 0 to 100): 85
Nightshade plant response rating ([12]; 62 g ai/ha): 90
Nightshade plant response rating ([12]; 125 g ai/ha): 90
Plant response rating, Speedwell ([13]; 16 g ai/ha, scale of 0 to 100): 80
Plant response rating, Speedwell ([13]; 31 g ai/ha, scale 0 to 100): 80
Speedwell plant response rating ([13]; 62 g ai/ha): 85
Speedwell plant response rating ([13]; 125 g ai/ha): 100
Plant response rating, Pigweed, Palmer ([14]; 31 g ai/ha, scale 0 to 100): 100
Plant response rating, Pigweed, Palmer ([14]; 62 g ai/ha, scale 0 to 100): 100
Plant response rating, Pigweed, Palmer ([14]; 125 g ai/ha, scale of 0 to 100): 100
Plant response rating, Johnsongrass ([15]; 31 g ai/ha, scale 0 to 100): 25
Plant response rating, Johnsongrass ([15]; 62 g ai/ha, scale 0 to 100): 50
Plant response rating, Johnsongrass ([15]; 125 g ai/ha, scale of 0 to 100): 80
Plant response rating, Surinam Grass ([16]; 31 g ai/ha, scale 0 to 100): 10
Plant response rating, Surinam Grass ([16]; 62 g ai/ha, scale 0 to 100): 35
Plant response rating, Surinam Grass ([16]; 125 g ai/ha, scale of 0 to 100): 50
Plant response rating, Oat, Wild ([17]; 31 g ai/ha, scale 0 to 100): 0
Plant response rating, Oat, Wild ([17]; 62 g ai/ha, scale 0 to 100): 5
Plant response rating, Oat, Wild ([17]; 125 g ai/ha, scale of 0 to 100): 5
Plant response rating, Poinsettia, Wild ([18]; 31 g ai/ha, scale 0 to 100): 5
Plant response rating, Poinsettia, Wild ([18]; 62 g ai/ha, scale 0 to 100): 20
Plant response rating, Poinsettia, Wild ([18]; 125 g ai/ha, scale of 0 to 100): 25
Plant response rating, Galium ([19]; 31 g ai/ha, scale 0 to 100): 30
Plant response rating, Galium ([19]; 62 g ai/ha, scale 0 to 100): 80
Plant response rating, Galium ([19]; 125 g ai/ha, scale of 0 to 100): 80
